Experimental data: patent US20130172324A1, “METHOD FOR TREATING CARDIOVASCULAR DISEASES USING RHO KINASE INHIBITOR COMPOUNDS” (priority 2008, published 2013)
Like-named read-outs stand apart in the source and are kept apart here.

System: rat trachea rings
Assay: Tracheal relaxation assay (carbachol precontracted rings);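 also: isometric tension of rat tracheal rings in Krebs buffer with 1 µM indomethacin, compounds added cumulatively at 30 min intervals, basal tension subtracted, fit to Hill equation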
Settings: for Percentage of carbachol-induced contraction at 1 μM compound, Avg % / Percentage of carbachol-induced contraction at 10 μM compound, Avg %: 1 μM carbachol; for Trachael Ring Contraction, %: average percentage of carbachol-induced rat tracheal ring contraction at 1 μM of test compound; for IC50: read-out: IC50 Avg
[1] = relaxation of 1 μM carbachol precontracted rat tracheal rings

Procedure: The effects of compounds to induce relaxation of pre-contracted rat trachealis were determined. […] Trachea were excised, cleaned of connective tissue and cut into cylindrical segments of 2-3 mm length. Two stainless steel wires were guided through the lumen of the tracheal ring. One wire was fixed in the tissue bath and the other was connected to a force transducer via surgical silk. […] Indomethacin (1 μM), a cyclooxygenase inhibitor, was added to the Krebs buffer and was present throughout the experiments. Contractile tensions were measured using an isometric force transducer (Grass Instruments) and signals were analyzed using specialized software (Chart v5.5, ADInstruments). The preparations were allowed to equilibrate at a resting tension of 0.3 to 0.5 gm prior to two challenges with 60 mM KCl to assess tissue viability. After washing, tissues were treated with 1 μM carbachol for 10 to 15 minutes to induce a contractile response. Test Compounds were added cumulatively to the bath every 30 minutes and reductions in tension were recorded. Basal tension was subtracted from all values and data were reported as a percentage of the maximal carbachol-induced contraction. Data were fit to the Hill equation using GraphPad Prism v5 software.

Question: `NCc1cccc(CN2CCC[C@H](Nc3ccc4[nH]ncc4c3)C2)c1` [Compound 1.184, (S)-N-(1-(3-(aminomethyl)benzyl)piperidin-3-yl)-1H-indazol-5-amine] was tested. Which “Percentage of carbachol-induced contraction at 1 μM compound, Avg %” value (“Percentage … at 1 μM compound, Avg %” for short) did it give?
Answer: 88.6%

Question: Which results are given for `Clc1ccc(CN2CCC[C@H](Nc3ccc4[nH]ncc4c3)C2)cc1` [Compound 1.141, (S)-N-(1-(4-chlorobenzyl)piperidin-3-yl)-1H-indazol-5-amine]?
Answer: Percentage of carbachol-induced contraction at 1 μM compound, Avg %: 35.3%; Trachael Ring Contraction, %: 35%

Question: For `Cc1ccc(CN2CCC[C@H](Nc3ccc4[nH]ncc4c3)C2)cc1` [Compound 1.078, (S)-N-(1-(4-methylbenzyl)piperidin-3-yl)-1H-indazol-5-amine], which “Percentage … at 1 μM compound, Avg %” value is on record?
Answer: 39.6%

Question: Which “Percentage … at 1 μM compound, Avg %” value does the source give for `Clc1ccc(CN2CCC[C@@H](Nc3ccc4[nH]ncc4c3)C2)cc1` [Compound 1.132, (R)-N-(1-(4-chlorobenzyl)piperidin-3-yl)-1H-indazol-5-amine] here?
Answer: 42.4%

Question: And the “Trachael Ring Contraction, %” value?
Answer: 42%

Question: With `CCS(=O)(=O)Nc1cccc(CN2CC[C@@H](Nc3cccc4cnccc34)C2)c1` [Compound 2.041, (R)-N-(3-((3-(isoquinolin-5-ylamino)pyrrolidin-1-yl)methyl)phenyl)ethanesulfonamide] as the compound, how does the “Percentage of carbachol-induced contraction at 10 μM compound, Avg %” value (shortened to “Percentage … at 10 μM compound, Avg %”) read?
Answer: −5.4%

Question: And the IC50 (Rattus norvegicus)?
Answer: 162 nM

Question: With `CS(=O)(=O)Nc1cc(CN2CCC[C@@H](Nc3ccc4[nH]ncc4c3)C2)ccc1Cl` [Compound 1.212, (R)-N-(5-((3-(1H-indazol-5-ylamino)piperidin-1-yl)methyl)-2-chlorophenyl)methanesulfonamide] as the compound, how does the “Percentage … at 1 μM compound, Avg %” value read?
Answer: 40.1%

Question: What about the “Trachael Ring Contraction, %” value of the same compound?
Answer: 40%

Question: `CS(=O)(=O)Nc1cc(CN2CCC[C@H](Nc3ccc4[nH]ncc4c3)C2)ccc1Cl` [Compound 1.213, (S)-N-(5-((3-(1H-indazol-5-ylamino)piperidin-1-yl)methyl)-2-chlorophenyl)methanesulfonamide] was tested. Which “Percentage … at 1 μM compound, Avg %” value did it give?
Answer: 29.3%

Question: What about the “Trachael Ring Contraction, %” value of the same compound?
Answer: 29%

Question: Which results are given for `C[C@@H](N)c1ccc(C(=O)Nc2ccnc3[nH]ccc23)cc1` [Compound Y-39983, reference compound]?
Answer: Percentage of carbachol-induced contraction at 1 μM compound, Avg %: 26.5%; Percentage of carbachol-induced contraction at 10 μM compound, Avg %: −6.0%; IC50 [1]: 190 nM

Question: For `Fc1ccc(CN2CCC[C@H](Nc3ccc4[nH]ncc4c3)C2)cc1F` [Compound 1.072, (S)-N-(1-(3,4-difluorobenzyl)piperidin-3-yl)-1H-indazol-5-amine], which “Percentage … at 1 μM compound, Avg %” value is on record?
Answer: 33.1%

Question: Which “Percentage … at 10 μM compound, Avg %” value (listed as fasudil) does the source give for `O=S(=O)(c1cccc2cnccc12)N1CCCNCC1` [Fasudil, reference compound] here?
Answer: 43.0%

Question: And the “IC50 Avg” value [1]?
Answer: could not be obtained

Question: How did the “Percentage … at 1 μM compound, Avg %” value turn out when `C#Cc1cccc(CN2CCC[C@H](Nc3ccc4[nH]ncc4c3)C2)c1` [Compound 1.153, (S)-N-(1-(3-ethynylbenzyl)piperidin-3-yl)-1H-indazol-5-amine] was run?
Answer: 40.9%

Question: What about the “Trachael Ring Contraction, %” value of the same compound?
Answer: 41%

Question: How did the “Percentage … at 1 μM compound, Avg %” value turn out when `O=C(O)COc1cccc(CN2CCC[C@H](Nc3ccc4[nH]ncc4c3)C2)c1` [Compound 1.196, (S)-2-(3-((3-(1H-indazol-5-ylamino)piperidin-1-yl)methyl)phenoxy)acetic acid] was run?
Answer: 96.2%

Question: What does the source list for `CSc1ccc(CN2CCC[C@H](Nc3ccc4[nH]ncc4c3)C2)cc1` [Compound 1.075, (S)-N-(1-(4-(methylthio)benzyl)piperidin-3-yl)-1H-indazol-5-amine]?
Answer: Percentage of carbachol-induced contraction at 1 μM compound, Avg %: 39.1%; Trachael Ring Contraction, %: 39%

Question: Which results are given for `Cc1ccc(CN2CCC[C@H](Nc3cccc4cnccc34)C2)cc1` [Compound 2.045, (S)-N-(1-(4-methylbenzyl)piperidin-3-yl)isoquinolin-5-amine]?
Answer: Percentage of carbachol-induced contraction at 10 μM compound, Avg %: 13.6%; IC50 (Rattus norvegicus): 2720 nM

Question: Which “Percentage … at 1 μM compound, Avg %” value does the source give for `CCS(=O)(=O)Nc1cccc(CN2CCC[C@H](Nc3ccc4[nH]ncc4c3)C2)c1` [Compound 1.124, (S)-N-(3-((3-(1H-indazol-5-ylamino)piperidin-1-yl)methyl)phenyl)ethanesulfonamide] here?
Answer: 37.8%

Question: What about the “Percentage … at 10 μM compound, Avg %” value of the same compound?
Answer: 19.7%

Question: What about the IC50 (Rattus norvegicus) of the same compound?
Answer: 21 nM

Question: And the “Trachael Ring Contraction, %” value?
Answer: 38%

Question: Which results are given for `CCOC(=O)COc1cccc(CN2CCC[C@H](Nc3ccc4[nH]ncc4c3)C2)c1` [Compound 1.200, (S)-ethyl 2-(3-((3-(1H-indazol-5-ylamino)piperidin-1-yl)methyl)phenoxy)acetate]?
Answer: Percentage of carbachol-induced contraction at 1 μM compound, Avg %: 91.5%; Trachael Ring Contraction, %: 92%

Question: Which “Percentage … at 1 μM compound, Avg %” value does the source give for `c1cc2ccc(CN3CCC[C@H](Nc4ccc5[nH]ncc5c4)C3)cc2[nH]1` [Compound 1.148, (S)-N-(1-((1H-indol-6-yl)methyl)piperidin-3-yl)-1H-indazol-5-amine] here?
Answer: 51.2%

Question: And the “Trachael Ring Contraction, %” value?
Answer: 51%

Question: `CS(=O)(=O)Nc1cccc(CN2CCC[C@H](Nc3cccc4cnccc34)C2)c1` [Compound 2.037, (S)-N-(3-((3-(isoquinolin-5-ylamino)piperidin-1-yl)methyl)phenyl)methanesulfonamide] was tested. Which “Percentage … at 10 μM compound, Avg %” value did it give?
Answer: 21.3%

Question: And the IC50 (Rattus norvegicus)?
Answer: 2120 nM

Question: What does the source list for `Cc1ccc(CN2CCC[C@H](Nc3ccc4[nH]ncc4c3)C2)cc1OCCO` [Compound 1.152, (S)-2-(5-((3-(1H-indazol-5-ylamino)piperidin-1-yl)methyl)-2-methylphenoxy)ethanol]?
Answer: Percentage of carbachol-induced contraction at 1 μM compound, Avg %: 34.4%; Trachael Ring Contraction, %: 34%

Question: How did the “Percentage … at 1 μM compound, Avg %” value turn out when `CC(=O)NCc1cccc(CN2CCC[C@H](Nc3ccc4[nH]ncc4c3)C2)c1` [Compound 1.197] was run?
Answer: 41.7%

Question: What about the “Trachael Ring Contraction, %” value of the same compound?
Answer: 42%

Question: With `Cc1ccc(CN2CCC[C@H](Nc3ccc4[nH]ncc4c3)C2)cc1O` [Compound 1.151, (S)-5-((3-(1H-indazol-5-ylamino)piperidin-1-yl)methyl)-2-methylphenol] as the compound, how does the “Percentage … at 1 μM compound, Avg %” value read?
Answer: 33.1%

Question: `Oc1cccc(CN2CCC[C@H](Nc3ccc4[nH]ncc4c3)C2)c1` [Compound 1.163, (S)-3-((3-(1H-indazol-5-ylamino)piperidin-1-yl)methyl)phenol] was tested. Which “Percentage … at 1 μM compound, Avg %” value did it give?
Answer: 35.4%

Question: What about the “Trachael Ring Contraction, %” value of the same compound?
Answer: 35%

Question: How did the “Percentage … at 1 μM compound, Avg %” value turn out when `c1cc2cc(CN3CCC[C@H](Nc4ccc5[nH]ncc5c4)C3)ccc2o1` [Compound 1.150, (S)-N-(1-(benzofuran-5-ylmethyl)piperidin-3-yl)-1H-indazol-5-amine] was run?
Answer: 39.7%

Question: What about the “Trachael Ring Contraction, %” value of the same compound?
Answer: 40%

Question: With `c1cc2cc(CN3CCC[C@H](Nc4ccc5[nH]ncc5c4)C3)ccc2[nH]1` [Compound 1.149, (S)-N-(1-((1H-indol-5-yl)methyl)piperidin-3-yl)-1H-indazol-5-amine] as the compound, how does the “Percentage … at 1 μM compound, Avg %” value read?
Answer: 34.4%

Question: What about the “Trachael Ring Contraction, %” value of the same compound?
Answer: 34%

Question: Which results are given for `NC(=O)Cn1ccc2ccc(CN3CCC[C@H](Nc4ccc5[nH]ncc5c4)C3)cc21` [Compound 1.107, (S)-2-(6-((3-(1H-indazol-5-ylamino)piperidin-1-yl)methyl)-1H-indol-1-yl)acetamide]?
Answer: Percentage of carbachol-induced contraction at 10 μM compound, Avg %: 9.9%; IC50 (Rattus norvegicus): 1240 nM

Question: How did the “Percentage … at 1 μM compound, Avg %” value turn out when `CSc1ccc(CN2CCC[C@@H](Nc3ccc4[nH]ncc4c3)C2)cc1` [Compound 1.074, (R)-N-(1-(4-(methylthio)benzyl)piperidin-3-yl)-1H-indazol-5-amine] was run?
Answer: 39.6%

Question: What about the “Percentage … at 10 μM compound, Avg %” value of the same compound?
Answer: −15.1%

Question: And the IC50 (Rattus norvegicus)?
Answer: 729 nM

Question: What about the “Trachael Ring Contraction, %” value of the same compound?
Answer: 40%

Question: For `CCS(=O)(=O)Nc1cccc(CN2CCC[C@@H](Nc3ccc4[nH]ncc4c3)C2)c1` [Compound 1.123, (R)-N-(3-((3-(1H-indazol-5-ylamino)piperidin-1-yl)methyl)phenyl)ethanesulfonamide], which “Percentage … at 1 μM compound, Avg %” value is on record?
Answer: 46.7%

Question: And the “Percentage … at 10 μM compound, Avg %” value?
Answer: 4.6%

Question: What about the IC50 (Rattus norvegicus) of the same compound?
Answer: 45 nM

Question: And the “Trachael Ring Contraction, %” value?
Answer: 47%

Question: With `Cc1ccc(CN2CCC[C@@H](Nc3ccc4[nH]ncc4c3)C2)cc1O` [Compound 1.173, (R)-5-((3-(1H-indazol-5-ylamino)piperidin-1-yl)methyl)-2-methylphenol] as the compound, how does the “Percentage … at 1 μM compound, Avg %” value read?
Answer: 32.8%

Question: And the “Trachael Ring Contraction, %” value?
Answer: 33%

Question: `Cc1cncc2cccc(S(=O)(=O)N3CCCNC[C@@H]3C)c12` [Compound H-1152, reference compound] was tested. Which “Percentage … at 10 μM compound, Avg %” value did it give?
Answer: −6.5%
